Source: patent US5484803A, “Transcutaneous in vivo activation of photosensitive agents in blood” (priority 1995, dated 1996)

Assays:
mouse blood [1] = assay: Blood parameters immediately after light exposure (acute effect); assay type: in vivo, mice
Method: (§1) Blood Tests: Blood was drawn into syringes containing 50 μl of heparin (1000 units/ml saline). Blood samples (0.45 ml) from at least 1 mouse per time point were sent to the Diagnostic Laboratory at the University Hospital, University of British Columbia site, for analysis by a Coulter Counter. Blood morphology was determined on blood films prepared from selected samples by a laboratory technologist.
Fourteen mice (weight 22±1 g) were used in this study. Twelve mice were injected with 20 μg (0.9 mg/kg) of liposomal BPD (in 200 μl) and kept in the dark for 1 hour before exposure to light. The mice each were exposed to light for 30 min, 1 hour or 1.5 hours, which delivered light doses to the skin surface of 54, 108 and 162 J/cm^2, respectively. Immediately after light exposure, blood samples were obtained. At the corresponding times, blood samples were obtained from two mice injected with BPD, but not exposed to light. Two additional mice were tested one hour after injection.

[2] = test system: free viruses and virally infected cells; conditions: with red light (400-900 nm); spiked blood products and whole blood from viremic cats; cited from earlier work
mice skin = assay: Skin photosensitivity and skin changes, transcutaneous activation study; assay type: in vivo
skin = conditions: DBA/2, 4 mg/kg, cited from earlier work
mouse blood [3] = assay: Blood cell morphology 2 weeks post-treatment; assay type: in vivo, Balb/c mice
Method: as §1
Six Balb/c mice (22±1 g weight) were prepared as described above. Five mice were injected twice (24 hour interval) with BPD from DMSO stock (not liposomal BPD) and exposed to light 1 hour after the injection. One mouse was not injected but was exposed to light (light-only control). During the first treatment the mice were injected with 15 μg BPD/mouse in 200 μl of PBS. During the second treatment the mice were injected with 20 μg BPD/mouse (0.9 mg/kg). A single mouse was used as a control for both treatments.
Immediately post-injection (on both occasions) the animals were kept for 1 hour in the dark and then were placed in individual plastic containers (9×4×5 cm), which were placed in the light box and exposed to light. The individual mice were removed from the light box at different intervals: 15, 30, 45, 60 and 75 min, respectively. The light doses delivered at the surface of the skin were 27, 54, 81, 108 and 135 J/cm^2, respectively. On the second occasion the same light doses were used; however, mice receiving higher light doses on day 1 received lower doses on day 2. The control mouse was exposed to light for 60 min on both occasions. During light exposure, the mice were constantly observed for signs of discomfort or itching. After the second light exposure, the mice were observed daily for a period of 2 weeks for appearance of the skin and general pattern of behavior.
Two weeks post-treatment blood samples were obtained from each mouse by a heart puncture, under halothane anesthesia. Then the mice were sacrificed and autopsied. Their spleen, liver and kidneys were weighed.

[4] = test system: tumor tissue, including leukemic cells; conditions: cited from earlier work
[5] = 0.9 mg/kg liposomal BPD, 54-162 J/cm^2
[6] = BPD 0.87 mg/kg, light 0, 1 1/2 h post inj.
[7] = BPD 0.87 mg/kg, light 0, 2 1/2 h post inj.
[8] = BPD 0.87 mg/kg, light 0, 1 h post inj.
[9] = BPD 0.93 mg/kg, light 0, 2 h post inj.
[10] = BPD 0.93 mg/kg, light 162 J/cm^2, 2 1/2 h post inj.
[11] = BPD 0.95 mg/kg, light 54 J/cm^2, 1 1/2 h post inj.
[12] = BPD 0.95 mg/kg, light 108 J/cm^2, 2 h post inj.

## benzoprophyrin derivative monoacid ring A [BPD]
Mouse blood [1]; [5]
  acute effect on blood parameters: no acute effect on blood parameters was observed
Mouse blood [1]; [6]
  HB: 117 g/L
  Hct: 0.329
  MCV: 48.7 fL
  PLT: 428 10^6 /ml
  RBC: 6.77 10^9 /ml
  WBC: 4.4 10^6 /ml
Mouse blood [1]; [7]
  HB: 129 g/L
  Hct: 0.372
  MCV: 48.5 fL
  PLT: 447 10^6 /ml
  RBC: 7.68 10^9 /ml
  WBC: 3.9 10^6 /ml
Mouse blood [1]; [8]
  HB: 124 g/L
  Hct: 0.368
  MCV: 48.4 fL
  PLT: 608 10^6 /ml
  RBC: 7.61 10^9 /ml
  WBC: 5.5 10^6 /ml
Mouse blood [1]; [9]
  HB: 129 g/L
  Hct: 0.382
  MCV: 49.1 fL
  PLT: 475 10^6 /ml
  RBC: 7.79 10^9 /ml
  WBC: 11.4 10^6 /ml
Mouse blood [1]; [10]
  HB: 116 g/L
  Hct: 0.353
  MCV: 49.2 fL
  PLT: 506 10^6 /ml
  RBC: 7.17 10^9 /ml
  WBC: 4.9 10^6 /ml
Mouse blood [1]; [11]
  HB: 127 g/L
  Hct: 0.363
  MCV: 49.9 fL
  PLT: 613 10^6 /ml
  RBC: 7.28 10^9 /ml
  WBC: 7.0 10^6 /ml
Mouse blood [1]; [12]
  HB: 131 g/L
  Hct: 0.378
  MCV: 50.1 fL
  PLT: 440 10^6 /ml
  RBC: 7.53 10^9 /ml
  WBC: 8.5 10^6 /ml
[2]
  elimination of free viruses and virally infected cells: effective in eliminating both free viruses and virally infected cells
Mice skin; [5]
  skin photosensitivity: did not cause skin photosensitivity
Mice skin; immediately or during the 2 week post-exposure period, 0.9 mg/kg, 30 mW/cm^2
  changes of the skin: no changes of the skin were observed
skin; 153 J/cm^2 (170 mW/cm^2) at 3 h
  immediate post-exposure changes in the skin: no immediate post-exposure changes in the skin were observed
skin; 153 J/cm^2 (170 mW/cm^2) at 3 h, within first 24 hour post-exposure, progressed up to 96 hours
  skin necrosis: severe skin necrosis
skin; 153 J/cm^2, eventually
  healing of wounds: the wounds healed and the hair regrew
Mouse blood [3]; mouse 1, light 27 then 135 J/cm^2
  Monocytes: 1 % WBC
Mouse blood [3]; mouse 1, light 27 then 135 J/cm^2, normal 12-15
  Granulocytes: 9 % WBC
Mouse blood [3]; mouse 1, light 27 then 135 J/cm^2, normal 65-85
  Lymphocytes: 90 % WBC
Mouse blood [3]; mouse 2, light 54 then 108 J/cm^2
  Monocytes: 1 % WBC
Mouse blood [3]; mouse 2, light 54 then 108 J/cm^2, normal 12-15
  Granulocytes: 11 % WBC
Mouse blood [3]; mouse 2, light 54 then 108 J/cm^2, normal 65-85
  Lymphocytes: 88 % WBC
Mouse blood [3]; mouse 3, light 81 then 81 J/cm^2
  Monocytes: 3 % WBC
Mouse blood [3]; mouse 3, light 81 then 81 J/cm^2, normal 12-15
  Granulocytes: 19 % WBC
Mouse blood [3]; mouse 3, light 81 then 81 J/cm^2, normal 65-85
  Lymphocytes: 78 % WBC
Mouse blood [3]; mouse 4, light 108 then 54 J/cm^2
  Monocytes: 2 % WBC
Mouse blood [3]; mouse 4, light 108 then 54 J/cm^2, normal 12-15
  Granulocytes: 36 % WBC
Mouse blood [3]; mouse 4, light 108 then 54 J/cm^2, normal 65-85
  Lymphocytes: 62 % WBC
Mouse blood [3]; mouse 5, light 135 then 27 J/cm^2
  Monocytes: 1 % WBC
Mouse blood [3]; mouse 5, light 135 then 27 J/cm^2, normal 12-15
  Granulocytes: 7 % WBC
Mouse blood [3]; mouse 5, light 135 then 27 J/cm^2, normal 65-85
  Lymphocytes: 92 % WBC
[4]
  affinity for tumor tissue versus normal cells: higher affinity for tumor tissue, including leukemic cells, than for normal non-malignant cells
